Consider three molecules from patent publication US8372598B2 (priority 2010, dated 2013).

Test [1] has as its system Co-5673. Put plainly: microbe, parasite or virus in culture. It is filed as cell-based, Clostridium.
Test [2] relates to Co-2164. The test can be described thus: microbe, parasite or virus in culture. Format: cell-based, Clostridium.
The subject of test [3] is strain Co-9064. The test can be described thus: MIC for NaCl. Conditions: NaCl MIC determination. Format: cell-based, Clostridium species.
For test [4], the system named is mutant 11301. The test can be described thus: Growth on agar plates with varying NaCl. The conditions noted are these: for CFU/ml: 48 hours. Format: cell-based, Clostridium.
Test [5] relates to strain Co-1533. Put plainly: MIC for NaCl. Format: cell-based, Clostridium species. The conditions noted are these: NaCl MIC determination.
Test [6] relates to mutant 10277. The test can be described thus: Growth on agar plates with varying NaCl. It is filed as cell-based, Clostridium. The conditions noted are these: for CFU/ml: 48 hours.
For test [7], the system named is mutant 11303. The test can be described thus: Growth on agar plates with varying NaCl. Conditions: for CFU/ml: 48 hours. It is filed as cell-based, Clostridium.
The test system of test [8] is strain Co-6232. The test can be described thus: MIC for NaCl. The conditions noted are these: NaCl MIC determination. It is filed as cell-based, Clostridium species.
Test [9] has as its system parent Clostridium strain. The test can be described thus: Growth on agar plates with varying NaCl. Format: cell-based. The conditions noted are these: for CFU/ml: 48 hours.
The test system of test [10] is mutant 10256. The test can be described thus: Growth on agar plates with varying NaCl. Format: cell-based, Clostridium. Conditions: for CFU/ml: 48 hours.
Test [11] concerns mutants of Co-9064 selected as in Example 1. The test can be described thus: Salt MIC / growth on NaCl plates, salt selection mutants as a group. Format: cell-based, Clostridium.
Test [12] deals with parent. Conditions: OD600, parent.
Test [13] concerns mutant #2.
Test [14] has as its system mutants of Co-9064 selected as in Example 1. Conditions: grown at increasing concentrations of butanol, FIGS. 2A and 2B.
Test [15] concerns mutant #1.
Where [16] appears, read: Clostridium, 40 min, read-out: Survival (% of control).

In the case of `CCOS(C)(=O)=O` [EMS, ethyl methane sulfonate], the “Survival (count)” value in [1] (30 μg/ml EMS, 40 minutes, 32° C., Co-5673) was 3.8 × 10^6; in [2], 5.8 × 10^6 (14%). The figures for the activity at 30 µg/mL in test [1] (setting [16]) and in test [2] (setting [16]) were 4% and 14%, respectively. The “higher survival rate in comparison to Co-5673” value in test [2] is recorded as 10%.
For `[Cl-].[Na+]` [NaCl, sodium chloride], the “highest concentration at which growth was observed” value in [3] is 300 mM; in test [5] it was 275 mM. Further, the CFU/ml entry in test [4] (NaCl 350 mM) is listed as “lawn”; in test [4] (NaCl 400 mM), “lawn”; in test [4] (NaCl 425 mM) it was 220 CFU/ml; in [4] (NaCl 450 mM) it was 30 CFU/ml; in test [4] (NaCl 475 mM), 0 CFU/ml; in test [6] (NaCl 350 mM), “lawn”. Besides, the CFU/ml entry is listed as “lawn” in test [6] (NaCl 400 mM); 2930 CFU/ml in [6] (NaCl 425 mM); 150 CFU/ml in [6] (NaCl 450 mM); 0 CFU/ml in [6] (NaCl 475 mM); “lawn” in [7] (NaCl 350 mM); “lawn” in test [7] (NaCl 400 mM). Besides, the CFU/ml stood at 800 CFU/ml in [7] (NaCl 425 mM); 10 CFU/ml in [7] (NaCl 450 mM); 0 CFU/ml in [7] (NaCl 475 mM); 6000 CFU/ml in test [9] (NaCl 350 mM); 0 CFU/ml in test [9] (NaCl 400 mM); 0 CFU/ml in [9] (NaCl 425 mM). In addition, the CFU/ml in test [9] (NaCl 450 mM) is 0 CFU/ml; in test [9] (NaCl 475 mM), 0 CFU/ml; in test [10] (NaCl 350 mM), “lawn”; in test [10] (NaCl 400 mM) it was “lawn”; in test [10] (NaCl 425 mM) it was 480 CFU/ml; in test [10] (NaCl 450 mM), 20 CFU/ml. In test [10] (NaCl 475 mM), the CFU/ml came out at 0 CFU/ml. Besides, the “grew on plates containing up to” value in test [4] (NaCl plates, mutant 11301) is 450 mM; in test [6] (NaCl plates, mutant 10277) it was 450 mM; in test [7] (NaCl plates, mutant 11303) it was 450 mM; in [9] (NaCl plates, parent strain), 325 mM; in test [10] (NaCl plates, mutant 10256) it was 450 mM. In addition, the “highest concentration of salt at which growth was observed” value in test [8] was 325 mM. In addition, in test [9] (solid medium, parent), the “no growth at this NaCl concentration and higher” value is on record as no less than 400 mM. In test [11] (mutants versus parent), the “increase of salt tolerance (salt MIC) compared to the parent strain” value is given as “more than 100 mM”. For the same molecule, the “growth up to” value in [11] (solid medium, four of the mutants) is recorded as 450 mM.
n-butanol: the “% of added n-butanol (v/v) at 50% inhibition” value in test [12] was 0.98 % (v/v); in test [13], 1.66 % (v/v); in test [15], 1.18 % (v/v). Besides, the “% improvement” value in test [13] turned out to be 69.96%; in test [15], 20.89%. Besides, in test [14], the “butanol tolerance compared to the parent strain” value is reported as “improved butanol tolerance”.
